Test results as given in US12415811B2, “1,2,3',5'-tetrahydro-2'h-spiro[indole-3,1'-pyrrolo[3,4-C]pyrrole]-2,3'-dione compounds as therapeutic agents activating TP53” (ADAMED PHARMA, S.A., priority 2018, dated 2025).
Read-outs that look alike come from different tables or passages of the source.

Tests used:
[1] = In vitro intrinsic clearance in murine microsomes; format: in vitro ADME; conditions: mouse, pH 7.4; murine microsomes 0.5 mg/ml, 1 μM compound, 37° C., up to 1 hour; read-out: murine MS Clint
Protocol: (§1) Metabolic stability of the compounds of the invention has been assessed by measurement of the in vitro intrinsic clearance in murine and human microsomes.
(§2) 10 mM stock solutions of markers and test compounds were prepared in DMSO. These were diluted 100-fold in 91:9 MeCN:DMSO to obtain a 100 μM assay stock. 10 mM NADPH was made up in 0.1M phosphate buffer (pH7.4). Microsomes were thawed in a waterbath at 37° C., and diluted to give a final assay concentration of 0.5 mg/ml.
(§3) 100 μM assay stocks were added to give a final concentration of 1 μM to incubation tubes containing buffer and NADPH (final assay concentration is 1 mM). Incubation tubes and microsomes were pre-warmed at 37° C. for 3 minutes. The microsomes were then added to the incubation tubes which were kept at 37° C. and shaken using the orbital shaker for the duration of the assay. Samples were taken at 6 pre-determined time points up to 1 hour and transferred to the prepared quench tubes containing an appropriate solvent with internal standard.
(§4) Quenched samples are mixed thoroughly and protein precipitated at −20° C. for a minimum of 12 hours. Samples were then centrifuged at 4° C. Supernatants were transferred to a fresh 96 well plate, compatible with the auto-sampler. The plate was sealed with a pre-slit silicone mat and analyzed by LC-MS/MS.

[2] = In vitro intrinsic clearance in human microsomes; format: in vitro ADME; conditions: pH 7.4; human microsomes 0.5 mg/ml, 1 μM compound, 37° C., up to 1 hour; read-out: human MS Clint
Protocol: as §1, §2, §3, §4

SJSA-1 xenograft = assay: In vivo efficacy in the SJSA-1 xenograft model in mice; conditions: for inhibition in vivo at 12.5 mg/kg: Mus musculus, po, 12.5 mg/kg p.o., q1d, SJSA-1 xenograft in Crl:CD-1-Foxn1nu mice, mean; for effect of treatment on tumors (in words): 14 doses of 12.5 mg/kg p.o., SJSA-1 xenograft; for regrowth of lesions during follow-up: after 14 doses of 12.5 mg/kg p.o., follow-up to day 101
Protocol: The experiment was conducted on female mice from the Crl:CD-1-Foxn1nu strain. Mice were inoculated subcutaneously in the right flank with cancer cell line SJSA-1 in the amount of 3×10^6 cells suspended in 100 μl HBSS: Matrigel matrix in a 3:1 ratio per mouse. On the 17th day after inoculation mice were divided into groups, so that in each group the mean tumor volume was similar and averaged around 200 mm^3. Experiment groups were selected, each consisting of 8 mice: Control NaCl 0.9% and compounds. Compounds 1-11 were dissolved in 56.60% PEG 400, 9.43% Cremophor RH40, 9.43% ETOH, 18.87% Labrafil M1944CS, 5.67% DMSO. For Compound 107 from WO2015/189799, group of 7 mice was used, and it was dissolved in 15% PEG400, 10% Cremophor EL, 75% H2O.
[…] During the course of experiment mice were weighed before each administration, —twice/thrice a week. Animal welfare was monitored daily. No significant difference in body weight or welfare was observed between experiment groups during and at the end of study.
Change in tumor volume was monitored twice/thrice a week starting from the first day of administration. Tumor volume was calculated based on its length and width measured with an electronic calipers: V[mm^3]=d^2×D/2
The tumor volume in the groups was measured up to 101 days after inoculation (72 days after last administration). Results of the experiment were expressed as mean values of tumor growth inhibition (TGI) ±SEM (Table 4). Tumor growth inhibition was calculated using the following formula TGI [%]=[100−[…]]
where C— mean tumor size in control group, T—mean tumor size in treated group. All calculations and graphs were performed using GraphPad Prism 5 software.

p53-Mdm2 interaction = p53-Mdm2 interaction (Homo sapiens (Human), UniProt Q00987); assay: Fluorescence polarization (FP) binding assay, inhibition of p53-Mdm2 interaction; conditions: 75 nM Mdm2 (amino acids 1-111), 10 nM FAM-labelled p53 peptide; IC50 transformed to Ki using Kenakin equation
p53-Mdm2 interaction, sequence (Q00987 1-111): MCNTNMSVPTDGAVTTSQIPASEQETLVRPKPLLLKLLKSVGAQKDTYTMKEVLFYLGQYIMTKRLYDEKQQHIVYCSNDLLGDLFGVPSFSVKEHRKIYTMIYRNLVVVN
Protocol: The inhibition of p53-Mdm2 interaction was measured using a fluorescence polarization (FP) binding assay. FP measures the rotational movement of molecules in a homogenous suspension. For this assay, N-terminal domain of Mdm2 protein (amino acids 1-111) is combined with a fluorescein-labeled (FAM) peptide derived from p53 trans-activation domain (Sequence: 5-FAM-TSFAEYWNLLSP). Upon excitation of the fluorescent ligand with linearly polarized light the peptide emits perpendicularly polarized light. If the peptide is bound by Mdm2, rotation will slow down and the perpendicular component will proportionally decrease. In opposition disruption of the peptide-Mdm2 complex due to binding of an inhibitor to the p53 binding site of Mdm2 results in releasing of peptide and decreasing of emitted light polarization.
Fluorescence polarization experiments were read on Biotek Cytation 5 reader with the 470 nm excitation and 520 nm emission filters for fluorescein. The fluorescence polarization was measured in black 96-well plates (Corning, CLS3991) in room temperature. Purity of Mdm2 was controlled at >95%. Reaction buffer was optimized by adding 5 mM DTT and 0.1% zwitterionic detergent CHAPS to reduce effect of nonspecific interactions.
The test was performed by combining successive dilution of compounds diluted in dimethyl sulfoxide (DMSO, 5% final concentration) with 75 nM Mdm2 in reaction buffer (PBS, 0.1% CHAPS, 5 mM DTT (dithiothreitol)). After 15 minutes of incubation in room temperature 10 nM FAM-labelled peptide was added. Final reading was performed after 90 minutes of incubation. Dose-dependent binding curves and IC50 values were calculated using GraphPad Prism5 and next transformed to Ki values using Kenakin equation (Table 2).

[3] = system: SJSA-1 osteosarcoma cell line; assay: Cell viability MTT assay; format: cell-based; conditions: Homo sapiens, 72 h incubation, average of 2-5 experiments
Protocol: The effect of the invented p53-Mdm2 inhibitors on cell viability has been assessed using MTT assay. It is a colorimetric assay that measures conversion of tetrazolium ring of the soluble yellow dye (MTT) into insoluble purple formazan. This process is catalyzed solely in mitochondrial dehydrogenases of living cells.
Cells were seeded on 96-well plates and then treated with successive dilutions of tested compounds. After 72 h incubation, MTT was added to the final concentration 0.5 mg/ml. The cells were further incubated for the next 4 h. Then the solution was drained and the remaining formazan crystals were dissolved in 100 μl DMSO. […] All the MTT experiments were independently repeated 2-5 times. Dose-dependent binding curves and IC50 values were calculated using GraphPad Prism 5. The presented IC50 values represent the average value from all the performed experiments (Table 3).

[4] = after 7 doses, read-out: TGI P.O. 12.5 mg/kg (7 doses) [%]
[5] = after 12 doses, read-out: TGI P.O. 12.5 mg/kg (12 doses) [%]

Compound	microsomal CLint at 1 μM [1] [µL/min/mg]	microsomal CLint at 1 μM [2] [µL/min/mg]	inhibition in vivo at 12.5 mg/kg (SJSA-1 xenograft; [4]) [%]	inhibition in vivo at 12.5 mg/kg (SJSA-1 xenograft; [5]) [%]	Ki (p53-Mdm2 interaction) [nM]	IC50 [3] [µM]	effect of treatment on tumors (in words) (SJSA-1 xenograft)	regrowth of lesions during follow-up (SJSA-1 xenograft)
COc1ncc(-n2cc3c(c2C(C)C)[C@@]2(C(=O)Nc4cc(Cl)ccc42)N(c2cccc(Cl)c2)C3=O)c(OC)n1 [Compound 1, (3S)-6-chloro-2′-(3-chlorophenyl)-5′-(2,4-dimethoxypyrimidin-5-yl)-6′-(propan-2-yl)-1,2,3′,5′-tetrahydro-2′H-spiro[indole-3,1′-pyrrolo[3,4-c]pyrrole]-2,3′-dione]	8.8	< 3	95	99.5	1.8	0.18		
COc1ncc(-n2cc3c(c2C(C)C)[C@@]2(C(=O)Nc4cc(Cl)ccc42)N(c2cc(Cl)ccc2F)C3=O)c(OC)n1 [Compound 2, (3S)-6-chloro-2′-(5-chloro-2-fluorophenyl)-5′-(2,4-dimethoxypyrimidin-5-yl)-6′-(propan-2-yl)-1,2,3′,5′-tetrahydro-2′H-spiro[indole-3,1′-pyrrolo[3,4-c]pyrrole]-2,3′-dione]	< 4	< 3	94.4	98.9	1.7	0.16		
COc1nc(OC)c(-n2cc3c(c2C(C)C)[C@@]2(C(=O)Nc4cc(Cl)ccc42)N(c2cc(Cl)ccc2C)C3=O)c(OC)n1 [Compound 3, (3S)-6-chloro-2′-(5-chloro-2-methylphenyl)-6′-(propan-2-yl)-5′-(trimethoxypyrimidin-5-yl)-1,2,3′,5′-tetrahydro-2′H-spiro[indole-3,1′-pyrrolo[3,4-c]pyrrole]-2,3′-dione]	< 3	< 3	94.2	99.6	2.4	0.07		
COc1ncc(-n2cc3c(c2C(C)C)[C@@]2(C(=O)Nc4cc(Cl)ccc42)N(c2ccc(F)c(Cl)c2)C3=O)c(OC)n1 [Compound 4, (3S)-6-chloro-2′-(3-chloro-4-fluorophenyl)-5′-(2,4-dimethoxypyrimidin-5-yl)-6′-(propan-2-yl)-1,2,3′,5′-tetrahydro-2′H-spiro[indole-3,1′-pyrrolo[3,4-c]pyrrole]-2,3′-dione]	< 3	< 3	94.9	99.5	1.7	0.32		
COc1nc(OC)c(-n2cc3c(c2C(C)C)[C@@]2(C(=O)Nc4cc(Cl)ccc42)N(c2cc(Cl)ccc2F)C3=O)c(OC)n1 [Compound 5, (3S)-6-chloro-2′-(5-chloro-2-fluorophenyl)-6′-(propan-2-yl)-5′-(trimethoxypyrimidin-5-yl)-1,2,3′,5′-tetrahydro-2′H-spiro[indole-3,1′-pyrrolo[3,4-c]pyrrole]-2,3′-dione]	< 3	< 3	85.8	96	2.2	0.18		
COc1cc(N(C)C)ncc1-n1cc2c(c1C(C)C)[C@@]1(C(=O)Nc3cc(Cl)ccc31)N(c1cc(Cl)ccc1F)C2=O [Compound 6, (3S)-6-chloro-2′-(5-chloro-2-fluorophenyl)-5′-[6-(dimethylamino)-4-methoxypyridin-3-yl]-6′-(propan-2-yl)-1,2,3′,5′-tetrahydro-2′H-spiro[indole-3,1′-pyrrolo[3,4-c]pyrrole]-2,3′-dione]	33.6	19.8	92	99.1	1.7	0.03		
COc1ncc(-n2cc3c(c2C(C)C)[C@@]2(C(=O)Nc4cc(Cl)ccc42)N(c2ccc(F)c(F)c2)C3=O)c(OC)n1 [Compound 7, (3S)-6-chloro-2′-(3,4-difluorophenyl)-5′-(2,4-dimethoxypyrimidin-5-yl)-6′-(propan-2-yl)-1,2,3′,5′-tetrahydro-2′H-spiro[indole-3,1′-pyrrolo[3,4-c]pyrrole]-2,3′-dione]	6.6	< 3	95	100	1.9	0.22	complete eradication of tumors	none of the lesions exhibited regrowth
COc1cc(OC)c(-n2cc3c(c2C(C)C)[C@@]2(C(=O)Nc4cc(Cl)ccc42)N(c2cc(Cl)ccc2F)C3=O)cn1 [Compound 9, (3S)-6-chloro-2′-(5-chloro-2-fluorophenyl)-5′-(4,6-dimethoxypyridin-3-yl)-6′-(propan-2-yl)-1,2,3′,5′-tetrahydro-2′H-spiro[indole-3,1′-pyrrolo[3,4-c]pyrrole]-2,3′-dione]			89.5	97.7	2	0.12		
CCC(C)c1c2c(cn1-c1cnc(OC)nc1OC)C(=O)N(c1cc(Cl)ccc1F)[C@]21C(=O)Nc2cc(Cl)ccc21 (stereo partly drawn) [Compound 11, (3)-6′-(butan-2-yl)-6-chloro-2′-(5-chloro-2-fluorophenyl)-5′-(2,4-dimethoxypyrimidin-5-yl)-1,2,3′,5′-tetrahydro-2′H-spiro[indole-3,1′-pyrrolo[3,4-c]pyrrole]-2,3′-dione]			93.7	99.7	2.5	0.05	complete eradication of tumors	none of the lesions exhibited regrowth
